As a reminder, the IC50 is the midpoint of a concentration-inhibition curve. Lower therefore signals greater potency.

Experiment [1] relates to p-p70 S6 Kinase (Thr389) in MCF-7 cells. The experiment is described as follows: AlphaLISA Ultra pS6K1 assay. The experiment is classed as cell-based. Particulars: Homo sapiens, 1.5 h; MCF7 cells, 90 min. The procedure, abridged:
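Phospho-S6K1 (Thr389) quantified by AlphaLISA Ultra read-out (2 h acceptor, then 2 h donor beads) in lysates of MCF-7 cells. Cells were plated 20–24 h before, refed 2 h, exposed to compounds for 90 min at 0.5% final DMSO, and lysates stored at −80 °C.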
For orientation: Bead proximity is the source of the signal in Alpha formats.

The test system of experiment [2] is pS6K1 T389 and pAkt S473 in PC3 cells. The experiment is described as follows: Western blot based pS6K1 and pAKT assay at 24 and 48 hour timepoints. The experiment is classed as cell-based. The method, then:
Example 57: Western Blot Based pS6K1 and pAKT Assay at 24 and 48 Hour Timepoints
Assay Protocol: • 1. Seed six well plate with 500,000 PC3 cells per well and incubate for 20˜24 hour. • 2. Add compounds into the cell plate. Incubate for 24 to 48 hours. • 4. Plate is placed on ice and the media is removed via aspiration. The wells are washed with 1 mL of 1x PBS and then fully aspirated. • 5. 110 μL of 1% Triton Lysis Buffer is added and each well is scraped vigorously. • 6. Cell homogenates are transferred to 1.5 mL eppendorf tubes on ice and spun down at 4° C. for 10 minutes at 10,000 rpm. • 7. Protein concentration of resulting cell lysates were quantified utilizing a Bradford assay and the samples run analyzed via Western blot on 4-12% Bis/Tris gels with 1×MES buffer. • 8. The gels were transferred onto membranes at 50V for 100 minutes, blocked with Odyssey Blocking buffer for 30 minutes then incubated overnight with primary antibody (pS6K1 T389 Rabbit or pAkt S473 Rabbit) overnight at 4° C. on a rotator. • 9. The membranes were washed 3× with TBS-T with a 5 minute incubation between each wash then incubated with secondary antibody (LiCor IRDye 800 Donkey Anti Rabbit) for at least 30 minutes. • 10. The membranes were washed 3× with TBS-T with a 5 minute incubation between each wash. • 11. The gels were then incubated for 5 minutes with PBS at room temperature then imaged using a Li-Cor.
Compounds that are not selective by comparing pS6K1 and pAKT IC50 by kinase assays are indicated by “NO” in the “mTORC1 selective @ 90 min” column of Table 4. […] Compounds that are not selective at the 24 hrs mark are indicated by “NO” in the “mTORC1 selective @ 24 hrs” column of Table 4. “N/A” stands for “not assayed” and “N/C” stands for “not calculated”.
On the technique in general: A western blot detects proteins with antibodies after separation by electrophoresis.

SMILES strings stand for the structures.

In the case of `CO[C@@H]1/C(C)=C/[C@@H](C)C(=O)C[C@@H]([C@H](C)C[C@@H]2CC[C@@H](O)[C@H](OC)C2)OC(=O)[C@@H]2CCCCN2C(=O)C(=O)[C@]2(O)O[C@@H](CC[C@H]2C)C[C@H](OCC2COCCO2)/C(C)=C/C=C/C=C/[C@@H](C)C[C@@H](C)C(=O)[C@@H]1OC` (stereo partly drawn) [I-27, (25E,27E,29E,30E,33R,34S,35R,36R,38S,40S,42S,43S,45R,46R,55R)-42-(1,4-dioxan-2-ylmethoxy)-55-hydroxy-43-[(1R)-2-[(1S,3R,4R)-4-hydroxy-3-methoxy-cyclohexyl]-1-methyl-ethyl]-45,46-dimethoxy-33,34,35,36,47,48-hexamethyl-66,67-dioxa-56-azatricyclohexatriaconta-25,27,29(47),30(48)-tetraene-49,50,51,52,53-pentone], in experiment [1], the IC50 was in the range of 0.01 to 0.1 µM. The “mTORC1 selective @ 24 hrs” value in experiment [2] is given as “Yes”.

Compound `COCCOCCO[C@H]1C[C@@H]2CC[C@@H](C)[C@@](O)(O2)C(=O)C(=O)N2CCCC[C@H]2C(=O)O[C@H]([C@H](C)C[C@@H]2CC[C@@H](OC)[C@H](OC)C2)CC(=O)[C@H](C)/C=C(\C)[C@@H](OC)[C@@H](OC)C(=O)[C@H](C)C[C@H](C)/C=C/C=C/C=C/1C` [I-31, (24E,26E,28E,29E,35R,36S,37R,38R,40S,42S,44S,45S,46R,47R,56R)-45-[(1R)-2-[(1S,3R,4R)-3,4-dimethoxycyclohexyl]-1-methyl-ethyl]-56-hydroxy-46,47-dimethoxy-44-[2-(2-methoxyethoxy)ethoxy]-35,36,37,38,48,49-hexamethyl-64,65-dioxa-57-azatricyclohexatriaconta-24,26,28(48),29(49)-tetraene-50,51,52,53,54-pentone] yielded an IC50 in experiment [1] of 0.01 to 0.1 µM. For the same compound, the “mTORC1 selective @ 24 hrs” value in experiment [2] is reported as “Yes”.

In turn, `COCCOCCO[C@H]1C[C@@H]2CC[C@@H](C)[C@@](O)(O2)C(=O)C(=O)N2CCCC[C@H]2C(=O)O[C@H]([C@H](C)C[C@@H]2CC[C@@H](OP(C)(C)=O)[C@H](OC)C2)CC(=O)[C@H](C)/C=C(\C)[C@@H](OC)[C@@H](OC)C(=O)[C@H](C)C[C@H](C)/C=C/C=C/C=C/1C` [I-34, (25E,27E,29E,30E,36R,37S,38R,39R,41S,43S,45S,46S,47R,48R,57R)-46-[(1R)-2-[(1S,3R,4R)-4-dimethylphosphoryloxy-3-methoxy-cyclohexyl]-1-methyl-ethyl]-57-hydroxy-47,48-dimethoxy-45-[2-(2-methoxyethoxy)ethoxy]-36,37,38,39,49,50-hexamethyl-66,67-dioxa-58-azatricyclohexatriaconta-25,27,29(49),30(50)-tetraene-51,52,53,54,55-pentone] came in with an IC50 in experiment [1] of 0.001 to 0.01 µM. The “mTORC1 selective @ 24 hrs” value in experiment [2] is “Yes”.

Take `COCCOCCO[C@H]1C[C@@H]2CC[C@@H](C)[C@@](O)(O2)C(=O)C(=O)N2CCCC[C@H]2C(=O)O[C@H]([C@H](C)C[C@@H]2CC[C@@H](OCCO)[C@H](OC)C2)CC(=O)[C@H](C)/C=C(\C)[C@@H](OC)[C@@H](OC)C(=O)[C@H](C)C[C@H](C)/C=C/C=C/C=C/1C` [I-37, (23E,25E,27E,28E,36R,37S,38R,39R,41S,43S,45S,46S,47R,48R,57R)-57-hydroxy-46-[(1R)-2-[(1S,3R,4R)-4-(2-hydroxyethoxy)-3-methoxy-cyclohexyl]-1-methyl-ethyl]-47,48-dimethoxy-45-[2-(2-methoxyethoxy)ethoxy]-36,37,38,39,49,50-hexamethyl-66,67-dioxa-58-azatricyclohexatriaconta-23,25,27(49),28(50)-tetraene-51,52,53,54,55-pentone]: in experiment [1], the half-maximal inhibitory concentration (IC50) was in the range of 0.001 to 0.01 µM. Also, in experiment [2], the “mTORC1 selective @ 24 hrs” value is reported as “Yes”.

In experiment [1], `CO[C@@H]1/C(C)=C/[C@@H](C)C(=O)C[C@@H]([C@H](C)C[C@@H]2CC[C@@H](OC)[C@H](OC)C2)OC(=O)[C@@H]2CCCCN2C(=O)C(=O)[C@]2(O)O[C@@H](CC[C@H]2C)C[C@H](OCC2COCCO2)/C(C)=C/C=C/C=C/[C@@H](C)C[C@@H](C)C(=O)[C@@H]1OC` (stereo partly drawn) [I-40, (26E,28E,30E,31E,34R,35S,36R,37R,39S,41S,43S,44S,46R,47R,56R)-44-[(1R)-2-[(1S,3R,4R)-3,4-dimethoxycyclohexyl]-1-methyl-ethyl]-43-(1,4-dioxan-2-ylmethoxy)-56-hydroxy-46,47-dimethoxy-34,35,36,37,48,49-hexamethyl-66,67-dioxa-57-azatricyclohexatriaconta-26,28,30(48),31(49)-tetraene-50,51,52,53,54-pentone] yielded an IC50 of at least 1 µM. The “mTORC1 selective @ 24 hrs” value in experiment [2] was “Yes”.

`COCCS(=O)(=O)CCO[C@H]1C[C@@H]2CC[C@@H](C)[C@@](O)(O2)C(=O)C(=O)N2CCCC[C@H]2C(=O)O[C@H]([C@H](C)C[C@@H]2CC[C@@H](OC)[C@H](OC)C2)CC(=O)[C@H](C)/C=C(\C)[C@@H](OC)[C@@H](OC)C(=O)[C@H](C)C[C@H](C)/C=C/C=C/C=C/1C` [I-43, (24E,26E,28E,29E,35R,36S,37R,38R,40S,42S,44S,45S,46R,47R,56R)-45-[(1R)-2-[(1S,3R,4R)-3,4-dimethoxycyclohexyl]-1-methyl-ethyl]-56-hydroxy-46,47-dimethoxy-44-[2-(2-methoxyethylsulfonyl)ethoxy]-35,36,37,38,48,49-hexamethyl-66,67-dioxa-57-azatricyclohexatriaconta-24,26,28(48),29(49)-tetraene-50,51,52,53,54-pentone]: the IC50 in experiment [1] was in the range of 0.01 to 0.1 µM. Further, in experiment [2], the “mTORC1 selective @ 24 hrs” value is on record as “Yes”.

With `CO[C@@H]1/C(C)=C/[C@@H](C)C(=O)C[C@@H]([C@H](C)C[C@@H]2CC[C@@H](OCCCO)[C@H](OC)C2)OC(=O)[C@@H]2CCCCN2C(=O)C(=O)[C@]2(O)O[C@@H](CC[C@H]2C)C[C@H](OCCOC2COC2)/C(C)=C/C=C/C=C/[C@@H](C)C[C@@H](C)C(=O)[C@@H]1OC` [I-45, (23E,25E,27E,28E,35R,36S,37R,38R,40S,42S,44S,45S,47R,48R,57R)-47,57-dihydroxy-45-[(1R)-2-[(1S,3R,4R)-4-(3-hydroxypropoxy)-3-methoxy-cyclohexyl]-1-methyl-ethyl]-48-methoxy-35,36,37,38,49,50-hexamethyl-44-[2-(oxetan-3-yloxy)ethoxy]-68,69-dioxa-58-azatricyclohexatriaconta-23,25,27(49),28(50)-tetraene-51,52,53,54,55-pentone], the IC50 in experiment [1] is under 0.001 µM. For the same compound, in experiment [2], the “mTORC1 selective @ 24 hrs” value is “Yes”.

For `COCCOCCO[C@H]1C[C@@H]2CC[C@@H](C)[C@@](O)(O2)C(=O)C(=O)N2CCCC[C@H]2C(=O)O[C@H]([C@H](C)C[C@@H]2CC[C@@H](OCCOC)[C@H](OC)C2)CC(=O)[C@H](C)/C=C(\C)[C@@H](OC)[C@@H](OC)C(=O)[C@H](C)C[C@H](C)/C=C/C=C/C=C/1C` [I-47, (24E,26E,28E,29E,37R,38S,39R,40R,42S,44S,46S,47S,48R,49R,58R)-58-hydroxy-48,49-dimethoxy-46-[2-(2-methoxyethoxy)ethoxy]-47-[(1R)-2-[(1S,3R,4R)-3-methoxy-4-(2-methoxyethoxy)cyclohexyl]-1-methyl-ethyl]-37,38,39,40,50,51-hexamethyl-66,67-dioxa-59-azatricyclohexatriaconta-24,26,28(50),29(51)-tetraene-52,53,54,55,56-pentone], in experiment [1], the IC50 lay within 0.001 to 0.01 µM. In experiment [2], the “mTORC1 selective @ 24 hrs” value is recorded as “Yes”.

The values are drawn from patent US20220267352A1, “RAPAMYCIN ANALOGS AND USES THEREOF” (Anakuria Therapeutics, Inc., priority 2021, published 2022).
